The results in this text go back to patent publication US12503440B2, “Nitroxoline derivative, preparation method therefor, and use thereof” (Jiangsu Yahong Meditech Co., Ltd., priority 2020, dated 2025).

Molecules are shown by their SMILES. Converted amounts (≈) assume the structure as drawn.

For orientation: IC50 means the point on the concentration scale where inhibition reaches its midpoint. Read a low IC50 as greater potency. In general, MIC50 refers to the lowest concentration that inhibits either 50% of growth or 50% of the strains tested, depending on the study. The term MIC90 denotes an inhibitory concentration at the 90% level, which refers to growth in some studies and to a panel of isolates in others. A word on the MIC: it is the least concentration at which growth counts as inhibited.

What all share (type): cell-based
The subject of assay [1] is Mouse prostate cancer cell line RM-1. The assay is described as follows: Inhibitory activity on cancer cells, CellTiter-Glo viability, 72 h. To be noted: RM-1, 72 h. An excerpt: (§1) • HUVEC (purchased from Allcells Biological Technology (Shanghai) Co., Ltd.); UM-UC-3 (ATCC); LNCaP Clone FGC (ATCC); RM-1 (purchased from Nanjing Cobioer Biosciences Co., Ltd.) 2. Reagents • Endothelial cell complete medium (Allcells, H-004) • Medium RPMI1640 (ATCC, 30-2001) • Medium EMEM (ATCC, 30-2003) • Medium DMEM (Gibco, 12430-054) • Fetal bovine serum (Gibco, 10091148) • Penicillin-streptomycin double anti-body (Gibco, S110JV) • DPBS (Gibco, 14190-144) • CellTiter-Glo® kit (Promega, G7573) • Trypsin (0.25%), phenol red (Gibco, 25200-056) • DMSO (Sigma, D2650) 3. Instruments • Biological safety cabinet (Suzhou Antai Airtech Co., Ltd., BSC-1300A II) • Inverted microscope (Nikon, CKX53) • Automated cell counter (Life Technologies, countess II) • Multifunctional microplate reader (Biotek, H1FM) • Shaker (Hangzhou Allsheng Instruments Co., Ltd., OS-100) • GraphPad Prism 5.0 software • XLFIT 5.3 (Inforstack Shanghai Co., Ltd.) 4. Test Method
(§2) In this test method, the following experiments were carried out in a biological safety cabinet, and the specific steps are as follows: • (1) On the first day, the cells were seeded in a 96-well plate, and the previous medium was poured off. 5 mL of DPBS was added to wash the cells, and then removed by a pipette. Then, 1 mL of trypsin (0.25%) was added, and the plate was placed in a cell culture incubator at 37° C., 5% CO2 for digestion, and taken out after about 2 to 5 minutes. New corresponding medium was added, and pipetted to resuspend the cells evenly, and the cells were then counted with an automated cell counter.
(§3) The digestion was observed using an inverted microscope.
(§4) Regarding to HUVEC, the medium used was endothelial cell complete medium; regarding to UM-UC-3, the medium used was 89v % EMEM+10v % fetal bovine serum+1 v % penicillin-streptomycin double anti-body; regarding to LNcaP Clone FGC, the medium used was 89v % RPM11640+10v % fetal bovine serum+1 v % penicillin-streptomycin double anti-body; and regarding to RM-1, the medium used was 89v % DMEM+10v % fetal bovine serum+1v % penicillin-streptomycin double anti-body. • (2) HUVEC cells were seeded in columns 1 to 11 of a 96-well plate (Corning, Cat. No. 3610) at a density of 2000 cells per well in 100 μL of medium, and the medium free of cell was added to the wells of column 12. The other three types of cells were also seeded, wherein UM-UC-3 and RM-1 cells were seeded at a density of 3000 cells per well, and LNCap Clone FGC cells were seeded at a density of 5000 cells per well. Then, the plate was placed in an incubator at 37° C., 5% CO2 for 24 hours. • (3) On the second day, the compounds of the present invention and the reference drug nitroxoline (obtained according to the preparation method disclosed in the prior art) were diluted in gradient (2.5 folds, started at 100 μmol) to obtain 8 dose points (there were a total of 8 columns of wells; the first column of wells had the highest concentration, the concentration decreased in turn, and the last column of wells had the lowest concentration). 10 uL of the compound diluted in gradient was added to the 100 μL of cells in column 1 to column 10 with an 8-channel pipette. 10 μL of the corresponding medium containing 0.33v % DMSO was added to column 11 and column 12. The plate was incubated in an incubator at 37° C., 5% CO2 for 72 hours (note: column 11 was used as MAX well with cells and no compounds; and column 12 was used as MIN well with no cells and no compounds). • (4) After treating with the compounds of the present invention for 72 hours, the cell viability detection reagents in the above CellTiter-Glo® kit were added to the 96-well plate at 50 μL per well according to the instructions. […]
For orientation: Cellular ATP, detected with luciferase, serves as a proxy for viable cell number.

For assay [2], the system named is Bladder cancer cell line UM-UC-3. The description is as above. Particulars: Homo sapiens, UMUC3, UM-UC-3, 72 h.
Source text: as §1, §2, §3, §4

The test system of assay [3] is Prostate cancer cell line LNcaP Clone FGC. Described as above. Particulars: Homo sapiens.
Source text: as §1, §2, §3, §4

For assay [4], the system named is Endothelial cell line HUVEC. Kind of assay: Inhibitory activity on cells, CellTiter-Glo viability, 72 h. To be noted: Homo sapiens.
Source text: as §1, §2, §3, §4

Another assay relates to Escherichia coli. Kind of assay: Bacteriostatic activity, micro broth dilution MIC (CLSI). To be noted: 20 hours; for MIC50 / MIC90: clinical strains (carbapenem-resistant), CAMHB; for MIC50: read-out: Escherichia coli Clinical strain MIC50; for MIC90: read-out: Escherichia coli Clinical strain MIC90; for MIC: standard strain ATCC25922, CAMHB. The procedure: (§5) The purpose of this test is to determine the bacteriostatic activity of the compounds of the present invention against a representative panel of strains (Gram-negative bacteria: […] ATCC 25922, Acinetobacter baumannii ATCC 19606; Gram-positive bacteria: Staphylococcus aureus ATCC29213). Bacteriostatic activity was determined by minimum inhibitory concentration (MIC), MIC50, MIC90. This test was entrusted to Shanghai Junj Lab Co., Ltd. Except for the test drugs, all other test materials were provided by Shanghai Junj Lab Co., Ltd.
(§6) The tested bacteria were several strains of clinically isolated carbapenem-resistant Escherichia coli, several strains of carbapenem-resistant Acinetobacter baumannii, several strains of methicillin-resistant Staphylococcus aureus, and several strains of sensitive Staphylococcus aureus. Duplicate strains isolated from the same patient were eliminated. There were also three quality control strains Escherichia coli ATCC 25922, Acinetobacter baumannii ATCC 19606, and Staphylococcus aureus ATCC 29213. The activity test of each compound was carried out on one or more strains of each of the above test bacteria.
(§7) According to the recommendations of relevant documents of the American Clinical and Laboratory Standards Institute (CLSI), the micro broth dilution method was used to determine the MIC of the compounds of the present invention against clinically isolated strains. The culture solution free of drug was used as the test bacteria positive control, the culture solution free of bacterial solution was used as the drug negative control, and the culture solution free of drug solution and bacterial solution was used as the blank control. • 4.1 Formulation of antibacterial drug: All the compounds of the present invention were dissolved in DMSO. The drug concentration range was 128 mg/L-0.06 mg/L. Specific method: The compounds of the present invention were successively diluted by 1:1 with DMSO to obtain an intermediate series with a range of 25600 mg/L-12.5 mg/L. 30 μL of solution from each tube of the intermediate series of each compound was added to a 3 mL/tube series of single broth tube, and mixed well to obtain an intermediate series with a range of 256 mg/L to 0.125 mg/L. The diluted series solution was added to the drug susceptibility plate line by line, 50 μL of solution per well. All ranges became investigated ranges after being mixed with an equal volume of bacterial solution: 128-0.06 mg/L. • 4.2 Culture medium: The drug susceptibility test used cation adjusted Mueller-Hinton broth (CAMHB). • 4.3 Amount of inoculum: The test bacteria cultured overnight were adjusted to 0.5 McFarland turbidity by the direct colony suspension method, and diluted 100 folds, the final inoculum amount was 10^5 CFU/mL. • 4.4 Culture conditions: The test bacteria were cultured at 35±2° C. for 20 hours in air. 5. Interpretation and Judgment of Results
(§8) The drug susceptibility test results were interpretated by reference to CLSI 2019 edition M100 29th edition criteria.
(§9) The results of drug susceptibility test were statistically analyzed by WHONET version 5.6 software.
(§10) The culture solution free of bacterial solution was used as the drug negative control, and the culture solution free of drug solution and bacterial solution was used as the blank control, wherein no bacteria grew in both solutions.
(In general: Dilution methods test growth across graded concentrations, often in twofold steps.)

Another assay deals with Acinetobacter baumannii. The description is as above. Particulars: 20 hours; for MIC50 / MIC90: clinical strains (carbapenem-resistant), CAMHB; for MIC50: read-out: Acinetobacter baumannii Clinical strain MIC50; for MIC90: read-out: Acinetobacter baumannii Clinical strain MIC90; for MIC: standard strain ATCC19606, CAMHB. The procedure: as §5, §6, §7, §8, §9, §10
The next assay relates to Staphylococcus aureus. The assay is described as above. Particulars: 20 hours; for MIC50 / MIC90: clinical strains (methicillin-resistant and sensitive), CAMHB; for MIC50: read-out: Staphylococcus aureus Clinical strain MIC50; for MIC90: read-out: Staphylococcus aureus Clinical strain MIC90; for MIC: standard strain ATCC29213, CAMHB. How it is done:
as §5, §6, §7, §8, §9, §10

Consider `CCOC(=O)N1CCN(c2ccnc3c(O)ccc([N+](=O)[O-])c23)CC1` [Example 22, ethyl 4-(8-hydroxy-5-nitroquinolin-4-yl)piperazine-1-carboxylate], for which the IC50 in assay [1] is 2.7 µM; in assay [2], 4 µM; in assay [3], 2.7 µM; in assay [4], 3 µM.

Regarding `O=[N+]([O-])c1ccc(O)c2nccc(C3CC3)c12` [Example 19, 4-cyclopropyl-5-nitroquinolin-8-ol], the IC50 came out at 0.9 µM in assay [1], 2.4 µM in assay [2], 1.9 µM in assay [3] and 1.3 µM in assay [4]. The MIC50 worked out at 8 µg/mL (≈ 34.7 µM) in the assay with Escherichia coli, 8 µg/mL (≈ 34.7 µM) with Acinetobacter baumannii and 2 µg/mL (≈ 8.69 µM) in the assay with Staphylococcus aureus. For the same compound, the MIC90 was 16 µg/mL (≈ 69.5 µM) with Escherichia coli, 16 µg/mL (≈ 69.5 µM) with Acinetobacter baumannii and 4 µg/mL (≈ 17.4 µM) with Staphylococcus aureus. Also, the figures for the MIC in the assay with Escherichia coli, with Acinetobacter baumannii and against Staphylococcus aureus were 8 µg/mL (≈ 34.7 µM), 16 µg/mL (≈ 69.5 µM) and 4 µg/mL (≈ 17.4 µM), respectively.

In the case of `O=[N+]([O-])c1ccc(O)c2nccc(N3CCNCC3)c12` [Example 10, 5-nitro-4-(piperazin-1-yl)quinolin-8-ol], half-maximal inhibition in assay [2] (IC50) required 3 µM.

In the case of `O=[N+]([O-])c1ccc(O)c2nccc(-c3ccccc3)c12` [Example 9, 5-nitro-4-phenylquinolin-8-ol], the IC50 in assay [1] is 1 µM; in assay [2], 0.5 µM; in assay [3], 1.7 µM; in assay [4], 1.3 µM. The MIC50 in the assay with Escherichia coli was 128 µg/mL (≈ 481 µM); with Acinetobacter baumannii it was 128 µg/mL (≈ 481 µM); with Staphylococcus aureus it was 4 µg/mL (≈ 15 µM). The MIC90 worked out at 128 µg/mL (≈ 481 µM) in the assay on Escherichia coli, 128 µg/mL (≈ 481 µM) in the assay on Acinetobacter baumannii and 8 µg/mL (≈ 30 µM) in the assay on Staphylococcus aureus. In the assay on Staphylococcus aureus, the MIC worked out at 4 µg/mL (≈ 15 µM).

For the compound `O=[N+]([O-])c1ccc(O)c2nccc(C3CCCC3)c12` [Example 24, 4-cyclopentyl-5-nitroquinolin-8-ol], the IC50 in assay [1] turned out to be 1 µM; in assay [2] it was 1.7 µM; in assay [3] it was 0.8 µM; in assay [4] it was 1.4 µM. Further, the MIC50 was found to be 32 µg/mL (≈ 124 µM) with Escherichia coli, 32 µg/mL (≈ 124 µM) with Acinetobacter baumannii and 4 µg/mL (≈ 15.5 µM) with Staphylococcus aureus. For the same compound, the MIC90 in the assay on Escherichia coli was 64 µg/mL (≈ 248 µM); with Acinetobacter baumannii, 64 µg/mL (≈ 248 µM); in the assay on Staphylococcus aureus, 4 µg/mL (≈ 15.5 µM). Moreover, the MIC was 64 µg/mL (≈ 248 µM) against Escherichia coli, 32 µg/mL (≈ 124 µM) against Acinetobacter baumannii and 4 µg/mL (≈ 15.5 µM) in the assay with Staphylococcus aureus.

For `O=[N+]([O-])c1ccc(O)c2nccc(N3CCOCC3)c12` [Example 5, 4-morpholino-5-nitroquinolin-8-ol], the IC50 in assay [2] and in assay [3] was 5.5 µM throughout.

On to `O=[N+]([O-])c1ccc(O)c2ncccc12` [Nitroxoline, 5-nitro-8-hydroxyquinoline], for which the IC50 in assay [1] is 4.3 µM; in assay [2], 9.2 µM; in assay [3], 5.1 µM; in assay [4], 4.5 µM.

As for `O=[N+]([O-])c1ccc(O)c2nccc(-c3cccnc3)c12` [Example 17, 5-nitro-4-(pyridin-3-yl)quinolin-8-ol], the IC50 in assay [1] worked out at 2.8 µM; in assay [2] it was 4.9 µM; in assay [3] it was 4.8 µM.

As for `O=[N+]([O-])c1ccc(O)c2nccc(-c3ccncc3)c12` [Example 14, 5-nitro-4-(pyridin-4-yl)quinolin-8-ol], the half-inhibitory concentration (IC50) is 5 µM in assay [2] and 3.8 µM in assay [3].

Turning to `CC1CCCCN1c1ccnc2c(O)ccc([N+](=O)[O-])c12` (stereo not drawn) [Example 13, 4-(2-methylpiperidin-1-yl)-5-nitroquinolin-8-ol], the IC50 in assay [1] was 2 µM; in assay [2], 1.6 µM; in assay [3], 1.2 µM; in assay [4], 2.5 µM.

For the compound `COc1ccnc2c(O)ccc([N+](=O)[O-])c12` [Example 16, 4-methoxy-5-nitroquinolin-8-ol], the IC50 in assay [1] is 2.1 µM; in assay [2], 1.5 µM; in assay [3], 1.8 µM. Moreover, the MIC50 is 32 µg/mL (≈ 145 µM) in the assay with Escherichia coli, 32 µg/mL (≈ 145 µM) in the assay on Acinetobacter baumannii and 4 µg/mL (≈ 18.2 µM) with Staphylococcus aureus. Also, the MIC90 in the assay on Escherichia coli was determined as 32 µg/mL (≈ 145 µM); in the assay on Acinetobacter baumannii it was 32 µg/mL (≈ 145 µM); in the assay with Staphylococcus aureus, 4 µg/mL (≈ 18.2 µM). Moreover, the values for the MIC in the assay with Escherichia coli, with Acinetobacter baumannii and with Staphylococcus aureus were 32 µg/mL (≈ 145 µM), 32 µg/mL (≈ 145 µM) and 4 µg/mL (≈ 18.2 µM), respectively.
